Read-outs that look alike come from different tables or passages of the source. Marks after values point to notes of the source that are not given here.
What was measured:
male NMRI-CERJ mice = test: Automated tail-suspension test in mice (Compound 19); assay type: in vivo, mouse; details: 16 mg/kg i.p., 30 min prior to testing; p<0.001
Experimental: In this test, the animal is suspended by the tail for 6 minutes. The behavior of the animal is recorded automatically using a special computerized apparatus which measures two parameters, the duration of immobility and the power of the movements. Ten animals are studied per dose group. […] This test, which is a variant of the behavioral despair test, is based on the assumption that animals faced with an insoluble aversive situation will alternate between phases of activity (searching to escape) and immobility (waiting, “despairs”).

NMDA receptor [1] = biological target: T1, NMDA receptor; test: [3H]MK-801 binding assay (rat cortex synaptic plasma membranes); details: read-out: [3H]MK-801 data IC50, Table I
T1 construct: rat cortex membranes
Experimental: Synaptic plasma membranes (SPMs) from rat cortex were prepared as follows. Isolated cerebral cortices from male and female rats were purchased from Pel-Freez (Rogers, Ariz.) in bulk, and stored at −80° C. The cortices from 25 rats were thawed and pooled. […] The resulting homogenates were centrifuged for 10 min at 1,000×g in a T865 rotor, UltraPro80 Sorvall Centrifuge. The supernatant was removed and subsequently centrifuged at 30,000×g for 30 min. […] Membranes were washed by re-suspension in 500 ml of 5 mM K-EDTA (pH 7.0), incubated at 32° C. for 30 min with stirring, and centrifuged at 100,000×g for 30 min. The final pellet was resuspended in 60 ml of […] K-EDTA (pH 7.0) and stored in aliquots at −80° C. The extensive washing procedure utilized in this assay was designed to minimize the concentrations of glutamate and glycine (co-agonists at the NMDA receptor-ionophore complex) present in the membrane preparation.
On the day of assay, aliquots of SPM were thawed and resuspended in 75 vols of 5 mM K-EDTA, pH 7.0. SPM were centrifuged at 100,000×g for 30 min at 4° C.
The SPM pellet was resuspended in assay buffer (30 mM EPPS, 1 mM K-EDTA, pH 7.0) by polytron. […] Binding was started by the addition of the tissue homogenate. The assay was terminated by the addition of 4 ml ice-cold buffer, followed by filtration over glass-fiber filters (Schleicher & Schuell No. 30) on a Millipore 12-well filtration manifold. Filters were washed with another 3 ×4 ml ice-cold buffer (pH 7.0). Radioactivity on the filters was measured using Fisherbrand Scinti-Safe scintillation cocktail. Samples were shaken for 45-60 min on a shaker platform to solubilize the radioactivity. Counting for ^3H was performed in a Beckman 6000IC LS Scintillation Counter for 4 min per sample.

[2] = biological target: T2, norepinephrine transporter site (Rattus norvegicus, UniProt Q63380); test: Norepinephrine reuptake inhibition assay ([3H]nisoxetine binding, rat forebrain membranes)
T2 construct: tissue NovaScreen (performed the assay); host or cells: rat forebrain membranes
Experimental: (§1) Monoamine Transporter Minding Assays
(§2) Monoamine transporter binding assays (reuptake inhibition assays) were performed by NovaScreen using standard radioligand binding assays. The transporter binding assays are described briefly below:
Norepinephrine Reuptake Inhibition Assay
Reactions were terminated by rapid vacuum filtration onto glass fiber filters.

NMDA receptor [3] = tested on: T3, NMDA receptor; test: NMDA receptor assay (fura-2 cytosolic calcium in cultured rat cerebellar granule cells); assay type: cell-based; details: Table I, read-out: fura2 data IC50
T3 construct: fura2 data IC50; rat cerebellar granule cells
Experimental: All culture media, antibiotics, and enzymes, with the exception of fetal calf serum (Hyclone Laboratories, Logan, Utah), were purchased from Sigma Chemical Co., St. Louis, Mo. Fura-2/AM was obtained from Molecular Probes, Eugene, Oreg., and was prepared freshly in dimethylsulfoxide (DMSO) before use. Ionomycin (Calbiochem) was stored as a stock solution in DMSO. Nifedipine (Sigma) and nimodipine (RBI) were dissolved in absolute ethanol. […] All other agents were dissolved in phosphate-buffered saline (PBS), and adjusted to pH 7.4
Preparation of Rat Cerebellar Granule Cell (RCGC) Cultures
Briefly, primary cultures of cerebellar granule neurons were obtained from 8-day-old rats and plated onto squares of Aclar plastic coated with poly-L-lysine. The plastic squares were placed in 12-well culture plates, and ˜7.5×10^5 cells were added to each well. Cultures were maintained in Eagles's medium containing 25 mM KCl, 10% fetal calf serum, 2 mM glutamine, 100 μg/ml gentamicin, 50 U/ml penicillin, and 50 μg/ml streptomycin at 37° C. in a humid atmosphere of 5%CO2 in air for 24 hr before the addition of cytosine arabinoside (10 μM, final). No changes of culture medium were made until the cells were used for fluorescence recording 6-8 days after plating.
Measurement of Cytosolic Calcium
(“Ca^2+-free” buffer contained no added CaCl2 and 30 μM EGTA). The cells were then rinsed with the same buffer, lacking fura-2/AM, and maintained at room temperature until used for measurement of fluorescence, the Aclar squares were transferred into quartz cuvettes containing 2 ml of the HEPES buffer. The cuvette was then placed into a thermostatted holder equipped with a magnetic stirrer in a custom-built spectrofluorimeter (Biomedical Instrumentation Group, University of Pennsylvania, Philadelphia, Pa.). The size of the plastic Aclar square was such as to fit snugly in the cuvette when placed at a diagonal and therefore suspend itself over the spin bar. Fluorescence was measured using excitation and emission wavelengths of 340 and 510 nm, respectively. The amplitude of the evoked increase in fluorescence and subsequent inhibition were recorded and the concentration of [Ca^2+]i was calculated using the formula:
[Ca^2+]=Kd (F-Fmin)/(Fmax-F) (Eq. 1)
F=fluorescence amplitude evoked at a particular time point or concentration of compound;
Fmin=minimum fluorescence determined after the addition of a 2.5 M TRIS/0.3 M EGTA solution;
Fmax=maximum fluorescence determined following the addition of 7 mM ionomycin in DMSO; and […]

[4] = biological target: T4, dopamine transporter site (Cavia porcellus, UniProt H0WCX4); test: Dopamine reuptake inhibition assay ([3H]WIN 35428 binding, guinea pig striatal membranes)
T4 construct: tissue NovaScreen (performed the assay); host or cells: guinea pig striatal membranes
Experimental: as §1, §2
Dopamine Reuptake Inhibition Assay:
Reactions were terminated by rapid vacuum filtration onto glass fiber filters. Bound radioactivity was determined using liquid scintillation spectrometry and experimental values were compared to control values to determine binding to the dopamine transporter site based on Madras, et al., Molec.

[5] = biological target: T5, serotonin transporter site (Rattus norvegicus, UniProt P31652); test: Serotonin reuptake inhibition assay ([3H]citalopram binding, rat forebrain membranes)
T5 construct: tissue NovaScreen (performed the assay); host or cells: rat forebrain membranes
Experimental: as §1, §2
Serotonin Reuptake Inhibition Assay
Rat forebrain membranes were incubated with 0.7 nM [^3H] citalopram, N-methyl, (70-87 Ci/mmol)in 50 mM Tris-HCl (pH 7.4), 120 mM NaCl, and 5 mM KCl at 25° C. for 60 minutes. […] Reactions were terminated by rapid vacuum filtration onto glass fiber filters.

male Sprague-Dawley rats = test: Rat forced-swim test (FST); assay type: in vivo; details: Table VI; 10 mg/kg i.p., 30 minutes prior to testing; saline control 47.9
Experimental: (§3) For the mouse and rat forced-swim tests, male pathogen-free NIH-Swiss mice (Harlan Sprague-Dawley) weighing between 22-25 g, and male pathogen-free Sprague-Dawley rats (Harlan Sprague-Dawley) weighing between 320-350 g were used. Animals were removed from the housing room to the testing area in their own cages and allowed to adapt to the new environment for at least 1 hour before testing. Mice were administered either drug (imipramine, 10 mg/kg i.p.; or Compound 60, various p.o or i.p. doses) or saline. Thirty minutes to 24 hours later, mice were placed individually in cylinders (diameter: 10 cm; height: 25 cm) filled with 6 cm of water (22-25° C.) for 6 minutes. The duration of immobility during the last 4 minutes of the 6 minute test was scored. A mouse was recorded as immobile when floating motionless or making only those movements necessary to keep its head above water. Results were expressed as the duration of immobility (seconds).
The rat forced-swim test was conducted over two days. On treatment Day 1, rats were placed individually in cylinders (diameter: 18 cm; height: 40 cm) filled with water (22-25° C.) to a depth of 15 cm for 15 minutes. The duration of immobility during the first 5 minutes was scored. After testing, the rats were dried with paper towels and placed in holding cages. Five minutes after removal from the testing cylinders, animals received either drug (imipramine, 10 mg/kg i.p.; or Compound 60, various p.o. doses) or saline (p.o.). Ten minutes later, the rats were returned to their home cages. […] The duration of immobility during the first 5 minute period was recorded. A rat was recorded as immobile when floating motionless or making only those movements necessary to keep its head above water. […]

male C57BL/6 mice = test: Mouse tail-suspension test (TST) with Compound 60; assay type: in vivo
Experimental: For the mouse tail-suspension test with Compound 60, male pathogen-free C57BL/6 mice (Harlan Sprague-Dawley) weighing between 22-25 g were used. Animals were removed from the housing room to the testing area in their own cages and allowed to adapt to the new environment for at least 1 hour before testing. Mice were administered either drug (imipramine, 15 mg/kg i.p.; or Compound 60, various p.o. doses) or saline. Thirty minutes to 24 hours later, the mice were suspended on the edge of a shelf 80 cm above the floor in the testing room by adhesive tape placed approximately 1 cm from the tip of the tail. The duration of immobility was recorded during a test period of 5 minutes. Mice were considered immobile only when they hung passively and completely motionless. Results were expressed as the duration of immobility (sec).

male NIH-Swiss mice = test: Mouse forced-swim test (FST); assay type: in vivo; details: 10 mg/kg i.p. single dose 30 minutes prior to testing
Experimental: as §3

[6] = Table I, read-out: 5-HT Uptake Ki

T4 sequence (H0WCX4 1-619): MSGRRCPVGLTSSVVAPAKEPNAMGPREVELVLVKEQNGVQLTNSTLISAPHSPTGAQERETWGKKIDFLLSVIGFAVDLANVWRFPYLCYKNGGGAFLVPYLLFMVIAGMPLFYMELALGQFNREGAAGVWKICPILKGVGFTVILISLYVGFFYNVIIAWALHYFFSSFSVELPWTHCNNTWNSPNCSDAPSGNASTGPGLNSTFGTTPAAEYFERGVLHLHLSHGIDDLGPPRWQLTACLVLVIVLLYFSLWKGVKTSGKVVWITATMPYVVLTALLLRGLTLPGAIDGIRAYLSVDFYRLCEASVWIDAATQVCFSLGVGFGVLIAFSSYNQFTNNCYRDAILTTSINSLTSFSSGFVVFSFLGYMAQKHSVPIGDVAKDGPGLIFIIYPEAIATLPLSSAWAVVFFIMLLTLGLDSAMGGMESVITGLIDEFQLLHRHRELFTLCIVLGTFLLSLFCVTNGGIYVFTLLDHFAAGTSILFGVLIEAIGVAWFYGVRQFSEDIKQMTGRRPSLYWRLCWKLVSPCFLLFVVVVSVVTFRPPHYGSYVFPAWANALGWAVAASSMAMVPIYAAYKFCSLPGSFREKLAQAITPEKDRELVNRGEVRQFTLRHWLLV
T5 sequence (P31652 whole entry): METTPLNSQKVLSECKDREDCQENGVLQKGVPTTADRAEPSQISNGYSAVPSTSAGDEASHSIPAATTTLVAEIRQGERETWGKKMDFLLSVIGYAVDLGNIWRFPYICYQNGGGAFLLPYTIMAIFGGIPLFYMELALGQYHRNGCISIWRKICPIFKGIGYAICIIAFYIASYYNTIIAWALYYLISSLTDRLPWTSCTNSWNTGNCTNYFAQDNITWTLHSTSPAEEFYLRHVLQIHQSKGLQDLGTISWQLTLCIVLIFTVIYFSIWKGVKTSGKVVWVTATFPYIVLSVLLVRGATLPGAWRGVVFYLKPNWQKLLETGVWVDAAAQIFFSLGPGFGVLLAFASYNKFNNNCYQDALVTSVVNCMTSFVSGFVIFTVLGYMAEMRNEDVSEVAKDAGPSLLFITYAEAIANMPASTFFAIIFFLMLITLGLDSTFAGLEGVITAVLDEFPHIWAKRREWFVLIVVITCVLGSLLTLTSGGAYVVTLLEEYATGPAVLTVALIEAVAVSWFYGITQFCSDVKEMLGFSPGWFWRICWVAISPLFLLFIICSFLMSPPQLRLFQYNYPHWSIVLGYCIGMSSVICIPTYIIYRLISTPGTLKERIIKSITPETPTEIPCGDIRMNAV
T2 sequence (Q63380 1-617): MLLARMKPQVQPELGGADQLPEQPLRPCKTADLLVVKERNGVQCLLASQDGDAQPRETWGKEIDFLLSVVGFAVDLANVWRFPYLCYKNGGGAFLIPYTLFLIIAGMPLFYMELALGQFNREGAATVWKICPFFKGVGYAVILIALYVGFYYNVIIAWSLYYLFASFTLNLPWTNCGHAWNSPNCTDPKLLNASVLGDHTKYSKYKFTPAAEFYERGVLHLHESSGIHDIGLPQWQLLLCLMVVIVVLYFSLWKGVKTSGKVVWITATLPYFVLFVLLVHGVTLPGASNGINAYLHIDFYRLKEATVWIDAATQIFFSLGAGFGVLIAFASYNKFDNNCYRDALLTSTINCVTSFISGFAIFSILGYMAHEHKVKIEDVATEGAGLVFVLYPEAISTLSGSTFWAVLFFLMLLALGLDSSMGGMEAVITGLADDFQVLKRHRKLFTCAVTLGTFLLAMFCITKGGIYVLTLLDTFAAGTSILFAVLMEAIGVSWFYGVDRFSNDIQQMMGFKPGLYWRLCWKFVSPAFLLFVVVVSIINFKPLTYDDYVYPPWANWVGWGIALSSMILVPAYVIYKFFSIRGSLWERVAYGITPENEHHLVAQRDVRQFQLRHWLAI

Compound	IC50 (NMDA receptor [1]) [nM]	Ki [2] [nM]	IC50 (NMDA receptor [3]) [nM]	Ki [4] [nM]	Ki [5, 6] [nM]	further results
NCCC(c1ccccc1)c1ccccc1 [Compound 19]	2100	–	–	–	–	increase in the power of movements (male NMRI-CERJ mice): 275%
NCCC(c1cccc(F)c1)c1cccc(F)c1 [Compound 20]	252	312	70	3000	256	–
C[C@@H](CN)C(c1cccc(F)c1)c1cccc(F)c1 [Compound 33]	181	3800	60	826	1200	–
C[C@H](CN)C(c1cccc(F)c1)c1cccc(F)c1 [Compound 34]	2700	3000	426	602	2100	–
C[C@H](N)CC(c1cccc(F)c1)c1cccc(F)c1 [Compound 50]	762	107	89	1800	45	–
CNCCC(c1ccccc1)c1ccccc1 [Compound 67]	2900	–	11000	–	–	–
Fc1cccc(C(c2cccc(F)c2)C2CCCNC2)c1 (centres unmarked) [Compound 111]	167	124	645	30	–	Ki [5]: 600 nM
NCCC(Oc1cccc(F)c1)c1ccccc1 (centres unmarked) [Compound 137]	–	–	232	–	–	–
CN(C)CCCN1c2ccccc2CCc2ccccc21 [Imipramine, reference compound]	–	–	–	–	–	Mean Change in the Duration of Immobility (Day 2 minus Day 1) (male Sprague-Dawley rats): −23.3* sec; Mean duration of immobility (male C57BL/6 mice; Table VII, positive control, 15 mg/kg i.p. 30 minutes prior to testing, saline control 154.9): 103.6* sec; Duration of Immobility (male C57BL/6 mice; Table VIII (experiment #1), 15 mg/kg i.p. single dose 30 minutes prior to testing, saline control 210.1): 133.9* sec; Mean duration of immobility (male NIH-Swiss mice; Table IV, saline control 129.7): 53.4* sec; Mean duration of immobility (male NIH-Swiss mice; Table V, saline control 137.8): 72.5* sec

Source: patent publication US20040039014A1, “Methods and compounds for treating depression and other disorders” (NPS Pharmaceuticals, Inc., priority 1998, published 2004)
